This note sets out measurements from US8877707B2, “Inhibitors of HCV NS5A” (Presidio Pharmaceuticals, Inc., priority 2010, dated 2014).

This experiment has as its system HCV genotype 1b replicon in Huh 7 cells. The experiment is described as follows: HCV replicon assay (1b_Huh-Luc/Neo-ET cell line, luciferase readout). In kind it is cell-based. To be noted: Hepatitis C virus; Table 1; genotype 1b replicon, Huh 7 cells, 72 h, luciferase; read-out: Inhibition of HCV genotype 1b. Summed up:
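Huh 7 cells carrying a bicistronic genotype 1b luciferase replicon were treated with compound in triplicate the day after plating and incubated 72 h. Luciferase activity expressed as % of untreated control; EC50 from a four-parameter logistic fit, repeated several times.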

Turning to `COC(=O)N[C@H](C(=O)N1CCC[C@H]1c1ncc(-c2ccc3cc(-c4ccc(-c5cnc([C@@H]6COCCN6C(=O)[C@H](NC(=O)OC)c6ccccc6)[nH]5)cc4)ccc3c2)[nH]1)C(C)C` [compound 131], the EC50 is below 1 nM. With `COC(=O)N[C@H](C(=O)N1CCC[C@H]1c1ncc(-c2ccc(-c3ccc4cc(-c5cnc([C@@H]6COCCN6C(=O)[C@H](NC(=O)OC)c6ccccc6)[nH]5)ccc4c3)cc2)[nH]1)C(C)C` [compound 132] the figure was below 1 nM; with `COC(=O)N[C@H](C(=O)N1CCC[C@H]1c1ncc(-c2ccc(-c3ccc4cc(-c5cnc([C@@H]6CCCN6C(=O)[C@@H](NC(=O)OC)C6CCOCC6)[nH]5)ccc4c3)cc2)[nH]1)C1CCOCC1` [compound 133], below 1 nM. On to `COC(=O)N[C@H](C(=O)N1CCC[C@H]1c1ncc(-c2ccc3nc(-c4ccc(-c5cnc([C@@H]6CCCN6C(=O)[C@H](NC(=O)OC)c6ccccc6)[nH]5)cc4F)ccc3c2)[nH]1)C1CCOCC1` [compound 134], for which the EC50 is below 1 nM.

As to `COC(=O)N[C@H](C(=O)N1CCC[C@H]1c1ncc(-c2ccc3nc(-c4ccc(-c5cnc([C@@H]6CCCN6C(=O)[C@H](NC(=O)OC(C)(C)C)c6ccccc6)[nH]5)cc4F)ccc3c2)[nH]1)C1CCOCC1` [compound 135], the EC50 is below 1 nM. Then `COC(=O)N[C@H](C(=O)N1CCC[C@H]1c1ncc(-c2ccc(-c3ccc4cc(-c5cnc([C@@H]6CCCN6C(=O)[C@H](NC(=O)OC(C)(C)C)c6ccccc6)[nH]5)ccc4n3)c(F)c2)[nH]1)C1CCOCC1` [compound 136], with below 1 nM. Then `COC(=O)N[C@H](C(=O)N1CCOC[C@H]1c1ncc(-c2ccc(-c3ccc4cc(-c5cnc([C@@H]6CCCN6C(=O)[C@H](NC(=O)OC)c6ccccc6)[nH]5)ccc4c3)cc2)[nH]1)C(C)C` [compound 137], with below 1 nM; and `COC(=O)N[C@H](C(=O)N1CCOC[C@H]1c1ncc(-c2ccc3cc(-c4ccc(-c5cnc([C@@H]6CCCN6C(=O)[C@H](NC(=O)OC)c6ccccc6)[nH]5)cc4)ccc3c2)[nH]1)C(C)C` [compound 138], with below 1 nM; and `COC(=O)N[C@H](C(=O)N1CCC[C@H]1c1ncc(-c2ccc3cc(-c4ccc(-c5cnc([C@@H]6COCCN6C(=O)[C@@H](NC(=O)OC)C(C)C)[nH]5)cc4)ccc3c2)[nH]1)C(C)C` [compound 139], with below 1 nM. Regarding `COC(=O)N[C@H](C(=O)N1CCC[C@H]1c1ncc(-c2ccc(-c3ccc4cc(-c5cnc([C@@H]6COCCN6C(=O)[C@@H](NC(=O)OC)C(C)C)[nH]5)ccc4c3)cc2)[nH]1)C(C)C` [compound 140], the EC50 was below 1 nM. With `COC(=O)N[C@H](C(=O)N1CCC[C@H]1c1ncc(-c2ccc(-c3ccc4cc(-c5cnc([C@@H]6CCCN6C(=O)[C@@H](NC(=O)OC)C6CCOCC6)[nH]5)ccc4c3)c(F)c2)[nH]1)C1CCOCC1` [compound 141] the figure was below 1 nM. As for `CC[C@@H](C)[C@H](NC(=O)OC)C(=O)N1CCC[C@H]1c1ncc(-c2ccc(-c3ccc4cc(-c5cnc([C@@H]6CCCN6C(=O)[C@@H](NC(=O)OC)[C@H](C)CC)[nH]5)ccc4c3)cc2)[nH]1` [compound 142], the EC50 was below 1 nM. In the case of `COC(=O)N[C@H](C(=O)N1CCC[C@H]1c1ncc(-c2ccc(-c3ccc4cc(-c5cnc([C@@H]6CCCN6C(=O)[C@@H](NC(=O)OC)C6CC6)[nH]5)ccc4c3)cc2)[nH]1)C1CC1` [compound 143], the EC50 was below 1 nM. Consider `CNC(=O)N[C@@H](C(=O)N1CCC[C@H]1c1ncc(-c2ccc(-c3cc4ccc(-c5cnc([C@@H]6CCCN6C(=O)[C@@H](NC(=O)OC)C6CCOCC6)[nH]5)cc4cn3)cc2)[nH]1)c1ccccc1` [compound 144], for which the EC50 is below 1 nM. Then `COC(=O)N[C@H](C(=O)N1CCC[C@H]1c1ncc(-c2ccc3cc(-c4ccc(-c5cnc([C@@H]6CCCN6C(=O)[C@H](NC(=O)NC6CC6)c6ccccc6)[nH]5)cc4)ncc3c2)[nH]1)C1CCOCC1` [compound 145], with below 1 nM; and `COC(=O)N[C@H](C(=O)N1CCC[C@H]1c1ncc(-c2ccc3nc(-c4ccc(-c5cnc([C@@H]6C[C@@H](O)CN6C(=O)[C@@H](NC(=O)OC)C(C)C)[nH]5)cc4)ccc3c2)[nH]1)C(C)C` [compound 146], with below 1 nM; and `COC(=O)N[C@H](C(=O)N1C[C@H](O)C[C@H]1c1ncc(-c2ccc(-c3ccc4cc(-c5cnc([C@@H]6CCCN6C(=O)[C@@H](NC(=O)OC)C6CCOCC6)[nH]5)ccc4n3)cc2)[nH]1)C(C)C` [compound 147], with below 1 nM. Take `COC(=O)N[C@H](C(=O)N1C[C@H](O)C[C@H]1c1ncc(-c2ccc(-c3ccc4cc(-c5cnc([C@@H]6CCCN6C(=O)[C@H](NC(=O)OC)c6ccccc6)[nH]5)ccc4n3)cc2)[nH]1)C(C)C` [compound 148]: the EC50 was below 1 nM. As for `COC(=O)N[C@H](C(=O)N1C[C@H](O)C[C@H]1c1ncc(-c2ccc(-c3ccc4cc(-c5cnc([C@@H]6CCCN6C(=O)[C@H](NC(=O)OC6CCOCC6)c6ccccc6)[nH]5)ccc4n3)cc2)[nH]1)C(C)C` [compound 149], the EC50 was below 1 nM. Then `COC(=O)N[C@H](C(=O)N1CCC[C@H]1c1ncc(-c2ccc(-c3cc4ccc(-c5cnc([C@@H]6CCCN6C(=O)[C@@H](NC(=O)OC)C(C)C)[nH]5)cc4cn3)c(F)c2)[nH]1)C(C)C` [compound 150], with below 1 nM. Then `COC(=O)N[C@H](C(=O)N1CCC[C@H]1c1ncc(-c2ccc3cc(-c4ccc(-c5cnc([C@@H]6CCCN6C(=O)[C@@H](NC(=O)OC)C6CCOCC6)[nH]5)cc4F)ncc3c2)[nH]1)C(C)C` [compound 151], with below 1 nM. With `COC(=O)N[C@H](C(=O)N1CCC[C@H]1c1ncc(-c2ccc3cc(-c4ccc(-c5cnc([C@@H]6CCCN6C(=O)[C@H](NC(=O)OC)c6ccccc6)[nH]5)cc4F)ncc3c2)[nH]1)C(C)C` [compound 152], the EC50 is below 1 nM.

With `COC(=O)N[C@H](C(=O)N1CCC[C@H]1c1ncc(-c2ccc3cc(-c4ccc(-c5cnc([C@@H]6CCCN6C(=O)[C@H](NC(=O)OC6CCOCC6)c6ccccc6)[nH]5)cc4F)ncc3c2)[nH]1)C(C)C` [compound 153], the EC50 was below 1 nM.

As for `COC(=O)N[C@H](C(=O)N1CCC[C@H]1c1ncc(-c2ccc3cc(-c4ccc(-c5cnc([C@@H]6CCCN6C(=O)[C@H](NC(=O)OC6CCOCC6)c6ccccc6)[nH]5)c(F)c4)ncc3c2)[nH]1)C1CCOCC1` [compound 154], the EC50 is below 1 nM. Then `COC(=O)N[C@H](C(=O)N1CCC[C@H]1c1ncc(-c2ccc3cc(-c4ccc(-c5cnc([C@@H]6CCCN6C(=O)[C@H](NC(=O)OC)c6ccccc6)[nH]5)c(F)c4)ncc3c2)[nH]1)C(C)C` [compound 155], with below 1 nM. Then `COC(=O)N[C@H](C(=O)N1CCC[C@H]1c1ncc(-c2ccc(-c3cc4ccc(-c5cnc([C@@H]6CCCN6C(=O)[C@H](NC(=O)OC6CCOCC6)c6ccccc6)[nH]5)cc4cn3)cc2F)[nH]1)C(C)C` [compound 156], with below 1 nM; and `[2H]C([2H])([2H])C([2H])(C([2H])([2H])[2H])[C@@]([2H])(NC(=O)OC)C(=O)N1CCC[C@H]1c1ncc(-c2ccc3nc(-c4ccc(-c5cnc([C@@H]6CCCN6C(=O)[C@@H](NC(=O)OC)C(C)C)[nH]5)cc4F)ccc3c2)[nH]1` [compound 157], with below 1 nM; and `[2H]C([2H])([2H])C([2H])(C([2H])([2H])[2H])[C@@]([2H])(NC(=O)OC)C(=O)N1CCC[C@H]1c1ncc(-c2ccc3nc(-c4ccc(-c5cnc([C@@H]6CCCN6C(=O)[C@@H](NC(=O)OC)C6CCOCC6)[nH]5)cc4F)ccc3c2)[nH]1` [compound 158], with below 1 nM. As for `C=CC[C@H](NC(=O)OC)C(=O)N1CCC[C@H]1c1ncc(-c2ccc3nc(-c4ccc(-c5cnc([C@@H]6CCCN6C(=O)[C@@H](NC(=O)OC)C(C)C)[nH]5)cc4F)ccc3c2)[nH]1` [compound 159], the EC50 is below 1 nM.

Regarding `C=CC[C@H](NC(=O)OC)C(=O)N1CCC[C@H]1c1ncc(-c2ccc3nc(-c4ccc(-c5cnc([C@@H]6CCCN6C(=O)[C@@H](NC(=O)OC)C6CCOCC6)[nH]5)cc4F)ccc3c2)[nH]1` [compound 160], the EC50 is below 1 nM.

In the case of `C#CC[C@H](NC(=O)OC)C(=O)N1CCC[C@H]1c1ncc(-c2ccc3nc(-c4ccc(-c5cnc([C@@H]6CCCN6C(=O)[C@@H](NC(=O)OC)C(C)C)[nH]5)cc4F)ccc3c2)[nH]1` [compound 161], the EC50 is below 1 nM. In the case of `C#CC[C@H](NC(=O)OC)C(=O)N1CCC[C@H]1c1ncc(-c2ccc3nc(-c4ccc(-c5cnc([C@@H]6CCCN6C(=O)[C@@H](NC(=O)OC)C6CCOCC6)[nH]5)cc4F)ccc3c2)[nH]1` [compound 162], the EC50 was below 1 nM. With `COC(=O)N[C@H](C(=O)N1CCC[C@H]1c1ncc(-c2ccc(-c3ccc4cc(-c5cnc([C@@H]6CCCN6C(=O)[C@H](NC(=O)OC)C6C=CCC=C6)[nH]5)ccc4n3)c(F)c2)[nH]1)C1CCOCC1` [compound 163], the EC50 is below 1 nM. Then `COC(=O)NC(C(=O)N1CCC[C@H]1c1ncc(-c2ccc3nc(-c4ccc(-c5cnc([C@@H]6CCCN6C(=O)[C@@H](NC(=O)OC)C6CCOCC6)[nH]5)cc4F)ccc3c2)[nH]1)C1CCOC1` (some centres unmarked) [compound 164], with below 1 nM. Then `COC(=O)N[C@H](C(=O)N1CCC[C@H]1c1ncc(-c2ccc3cc(-c4ccc(-c5cnc([C@@H]6CCCN6C(=O)[C@H](NC(=O)OC)c6ccccc6)[nH]5)cc4F)ncc3c2)[nH]1)C1CCOCC1` [compound 165], with below 1 nM; and `COC(=O)N[C@H](C(=O)N1CCC[C@H]1c1ncc(-c2ccc(-c3cc4ccc(-c5cnc([C@@H]6CCCN6C(=O)[C@@H](NC(=O)OC)C6CCOCC6)[nH]5)cc4cn3)c(F)c2)[nH]1)C(C)C` [compound 166], with below 1 nM; and `COC(=O)N[C@H](C(=O)N1CCC[C@H]1c1ncc(-c2ccc(-c3cc4ccc(-c5cnc([C@@H]6CCCN6C(=O)[C@H](NC(=O)OC)c6ccccc6)[nH]5)cc4cn3)c(F)c2)[nH]1)C(C)C` [compound 167], with below 1 nM. Then `COC(=O)N[C@H](C(=O)N1CCOC[C@H]1c1ncc(-c2ccc3cc(-c4ccc(-c5cnc([C@@H]6COCCN6C(=O)[C@H](NC(=O)OC)c6ccccc6)[nH]5)cc4)ccc3c2)[nH]1)C(C)C` [compound 168], with below 1 nM.
